# Experimental data from US20260130917A1, “ANTIVIRAL COMPOSITION FOR CORONAVIRUS OR INFLUENZA VIRUS, USING NATURAL PRODUCTS, AND USE THEREOF” (priority 2022, published 2026).
# Assays:
# in vitro [1] = conditions: monkey
# [2] = test system: SARS-CoV-2 (βCoV/KOR/KCDC03/2020); assay: microbe, parasite or virus in culture; conditions: Severe acute respiratory syndrome coronavirus 2, Vero
# [3] = test system: SARS-CoV-2 (βCoV/KOR/KCDC03/2020); assay: in vitro; conditions: monkey
# [4] = test system: SARS-CoV-2 (βCoV/KOR/KCDC03/2020); assay: in vitro; conditions: human
# in vitro [5] = conditions: human
# [6] = test system: SARS-CoV-2 (βCoV/KOR/KCDC03/2020); assay: microbe, parasite or virus in culture; conditions: Severe acute respiratory syndrome coronavirus 2, Calu-3
# [7] = test system: SARS-CoV-2 spike pseudovirus particles; assay: organism not typed; format: cell-based
# [8] = test system: SARS-CoV-2 virus (B CoV/Korea/KCDC03/2020, NCCP43326); assay: Time-of-addition assay in Vero cells; format: cell-based; conditions: 50 μM, MOI 3
# [9] = test system: SARS-CoV-2 βCoV/Korea/KCDC03/2020, NCCP43326; assay: Efficacy in SARS-CoV-2 infected hACE2 transgenic mice (lung virus titer and viral RNA); format: in vivo; conditions: orally at 50 mg/kg, once a day three times, lungs on third day
# [10] = test system: influenza A H1N1 A/California/07/2009; assay: Antiviral activity against influenza virus in MDCK cells; format: cell-based, influenza A virus; conditions: concentration of 6.3 μM
# [11] = test system: influenza A H3N2 A/Hong Kong/4801/2014; assay: as above; format: cell-based, influenza A virus; conditions: concentration of 6.3 μM
# [12] = test system: influenza B B/Brisbane/60/2008; assay: as above; format: cell-based, influenza B virus; conditions: concentration of 6.3 μM
SMILES,CC50 (in vitro [1]),IC50 [2],selectivity ratio [3],other results
"CCCCCCCc1ccc(C(=O)Oc2ccc(SC)cc2)cc1 [MolPort-003-713-147, 4-(methylsulfanyl)phenyl 4-heptylbenzoate]",> 100 µM,94.4 µM,–,–
"c1ccc(Oc2cccc(OCCCN3CCCCC3c3cccnc3)c2)cc1 (stereo not shown) [MolPort-000-829-850, 3-{1-[3-(3-phenoxyphenoxy)propyl]piperidin-2-yl}pyridine and oxalic acid]",32.4 µM,15.6 µM,2.08,–
"O=C(C[C@@H]1CCNC[C@@H]1Cc1cc(COc2ccccc2)on1)NCc1ccc(F)cc1 [MolPort-005-947-745, N-[(4-fluorophenyl)methyl]-2-[(3R,4S)-3-{[5-(phenoxymethyl)-1,2-oxazol-3-yl]methyl}piperidin-4-yl]acetamide]",34.7 µM,24.3 µM,1.43,–
"CCCCCCCCCCC#CC#CCCCCCCCCC(=O)O [MolPort-003-939-688, tricosa-10,12-diynoic acid]",> 100 µM,29.9 µM,–,selectivity ratio [4]: 1.19; CC50 (in vitro [5]): > 100 µM; IC50 [6]: 83.8 µM
"CCCCC/C=C\C/C=C\CCCCCCCC(=O)O [MolPort-001-788-459, (9Z,12Z)-octadeca-9,12-dienoic acid]",> 100 µM,37.6 µM,–,–
"CC/C=C\C/C=C\C/C=C\CCCCCCCC(=O)O [MolPort-003-937-817, (9Z,12Z,15Z)-octadeca-9,12,15-trienoic acid]",> 100 µM,58.6 µM,1.71,–
"O=C(CCCNC(=O)c1cc2ccccc2o1)NCCc1c[nH]c2ccccc12 [MolPort-005-974-761, 4-[(1-benzofuran-2-yl)formamido]-N-[2-(1H-indol-3-yl)ethyl]butanamide]",> 100 µM,71.3 µM,–,–
"CC/C=C\C/C=C\C/C=C\C/C=C\C/C=C\C/C=C\CCC(=O)O [MolPort-003-932-890, (4Z,7Z,10Z,13Z,16Z,19Z)-docosa-4,7,10,13,16,19-hexaenoic acid]",62.4 µM,58.6 µM,1.06,–
"CCCCCOc1cccc(/C=C/C23N=C(O)CCN2c2ccccc2C3(C)C)c1 (stereo not shown) [MolPort-005-980-235, 10,10-dimethyl-10a-[(1E)-2-[3-(pentyloxy)phenyl]ethenyl]-3H,4H,10H,10aH-pyrimido[1,2-a]indol-2-ol]",> 100 µM,8.49 µM,–,"IC50 ([7]; 48 h): 27.5 µM; inhibition at 50 µM ([7]; Severe acute respiratory syndrome coronavirus 2, read-out: inhibition of intracellular entry of the SARS-CoV-2 virus): ~90%; virus infection pattern ([8]; treated 1 hour after virus infection): virus infection could not be prevented; virus infection pattern ([8]; treated 1 hour before virus infection or simultaneously with the virus): virus infection did not occur; viral RNA in the lungs [9]: decreased at a statistically significant level; viral titer (TCID50) in the lungs [9]: tended to decrease; antiviral activity [10]: about 90%; antiviral activity [11]: about 90%; antiviral activity [12]: about 50%; selectivity ratio [4]: 6.42; IC50 [6]: 15.6 µM"
"CCCCCCCOC(=O)c1ccc(OC(=O)c2cncc(Br)c2)cc1 [MolPort-003-713-431, 4-[(heptyloxy)carbonyl]phenyl 5-bromopyridine-3-carboxylate]",> 100 µM,57.5 µM,–,–
"CC(C)(C)c1cc(CCCOC(=O)CNc2ccccc2)cc(C(C)(C)C)c1O [MolPort-002-151-168, 3-(3,5-di-tert-butyl-4-hydroxyphenyl)propyl 2-(phenylamino)acetate]",> 100 µM,23.5 µM,–,selectivity ratio [4]: 1.65; CC50 (in vitro [5]): > 100 µM; IC50 [6]: 60.7 µM
"CC(C)CCC(CCNCc1ccc(OC(C)C)cc1)C1CCOC(C)(C)C1 (stereo not shown) [MolPort-009-758-577, [3-(2,2-dimethyloxan-4-yl)-6-methylheptyl]({[4-(propan-2-yloxy)phenyl]methyl})amine and oxalic acid]",14.5 µM,7.94 µM,1.83,–
"CC(C)(C)c1cc(CCCOC(=O)CNC2CCCCC2)cc(C(C)(C)C)c1O [MolPort-002-152-403, 3-(3,5-di-tert-butyl-4-hydroxyphenyl)propyl 2-(cyclohexylamino)acetate]",56.2 µM,32.5 µM,1.73,–
"O=C(Cn1ccc2ccc(OCc3ccccc3)cc21)NC[C@@H]1CCCN2CCCC[C@H]12 [MolPort-027-564-475, N-{[(1S,9aR)-octahydro-1H-quinolizin-1-yl]methyl}-2-[6-(benzyloxy)-1H-indol-1-yl]acetamide]",34.3 µM,18.5 µM,1.85,–
"CC/C=C\C/C=C\C/C=C\C/C=C\C/C=C\CCCC(=O)O [MolPort-003-933-180, (5Z,8Z,11Z,14Z,17Z)-icosa-5,8,11,14,17-pentaenoic acid]",70.5 µM,41.8 µM,1.69,–
"O=C(NC[C@@H]1CCCN2CCCC[C@H]12)c1cccc(-c2cc3ccccc3oc2=O)c1 [MolPort-027-564-039, N-{[(1S,9aR)-octahydro-1H-quinolizin-1-yl]methyl}-3-(2-oxo-2H-chromen-3-yl)benzamide]",> 100 µM,23.3 µM,–,–
"CCCCCCCc1ccc(C(=O)Oc2ccc(C(=O)O)cc2)cc1 [MolPort-003-709-991, 4-(4-heptylbenzoyloxy)benzoic acid]",> 100 µM,43.3 µM,–,–
"CCCc1cc2c3c(c(=O)oc2cc1OC(=O)CNC(=O)OCc1ccccc1)CCC3 [MolPort-002-526-563, 4-oxo-8-propyl-1H,2H,3H,4H-cyclopenta[c]chromen-7-yl 2-{[(benzyloxy)carbonyl]amino}acetate]",33.4 µM,28.7 µM,1.16,–
"CCOC(=O)c1c(C(C)(C)C)oc2ccc(OC(=O)c3ccc(OC)cc3)cc12 [MolPort-000-424-809, Ethyl 2-tert-butyl-5-(4-methoxybenzoyloxy)-1-benzofuran-3-carboxylate]",> 100 µM,31.2 µM,–,selectivity ratio [4]: 1.97; CC50 (in vitro [5]): > 100 µM; IC50 [6]: 50.7 µM
"CCCCCCCOC(=O)c1ccc(OC(=O)c2cccnc2)cc1 [MolPort-003-711-757, 4-[(heptyloxy)carbonyl]phenyl pyridine-3-carboxylate]",49 µM,24.3 µM,2.02,–
"CC/C=C/C/C=C/C/C=C/C/C=C/C/C=C/C/C=C\CCC(=O)O [MolPort-008-266-638, (4Z,7E,10E,13E,16E,19E)-docosa-4,7,10,13,16,19-hexaenoic acid]",36.2 µM,28.2 µM,1.29,–
"CCCCCC[C@@H](O)C/C=C\CCCCCCCC(=O)O [MolPort-003-939-239, (9Z,12R)-12-hydroxyoctadec-9-enoic acid]",> 100 µM,60.5 µM,–,–
"CCCCCCCCC1OCC(OC(=O)c2ccc(OC)cc2)CO1 (stereo not shown) [MolPort-002-515-990, 2-octyl-1,3-dioxan-5-yl 4-methoxybenzoate]",> 100 µM,24.6 µM,–,selectivity ratio [4]: 1.92; CC50 (in vitro [5]): > 100 µM; IC50 [6]: 52.2 µM
"CCCCCCCC/C=C\CCCCCCCC(=O)O [MolPort-001-788-274, (9Z)-octadec-9-enoic acid]",> 100 µM,67.9 µM,–,–
"O=C(OC[C@@H]1CCCN2CCCC[C@H]12)c1ccc(CSCc2ccccc2)o1 [MolPort-002-520-573, [(1R,9aR)-octahydro-1H-quinolizin-1-yl]methyl 5-[(benzylsulfanyl)methyl]furan-2-carboxylate]",58 µM,28.5 µM,2.04,–
"O=C(NCCc1ccccc1)c1cc2c([nH]c3ccccc32)c(CCc2ccccc2)n1 [MolPort-002-526-760, N,1-bis(2-phenylethyl)-9H-pyrido[3,4-b]indole-3-carboxamide]",42.2 µM,25.8 µM,1.63,–
